Results on 25 compounds are retold here after patent US20230303486A1, “CYCLOBUTYL-UREA DERIVATIVES” (Idorsia Pharmaceuticals Ltd, priority 2020, published 2023).

Where two headings read alike, the source gives them in different places.

Usually IC50 stands for the concentration needed to halve the response being measured.

The test system of this experiment is primary neuronal cultures from embryonic rat brains. Kind of experiment: Rat oscillation assay (FLIPR, neuronal calcium oscillations). Type of experiment: cell-based. How it is done: This assay is a functional phenotypic assay designed to mimic epileptic seizures using primary neuronal cultures from embryonic rat brains, which form a functional neuronal network that generate synchronized intracellular calcium concentration oscillations when cultured at high density in 384-well plate. The epileptic phenotype is induced by incubating the neurons in magnesium-free assay buffer, that results in increased probability of NMDA receptor activation, leading to an increased frequency and amplitude of intracellular calcium oscillations. Once neurons are incubated with the calcium indicator dye Fluo-8 AM (Tebu-bio), neuronal calcium oscillations can be monitored in real time using FLIPR® Tetra (fluorometric plate reader, Molecular Devices). With these recordings, the effect of anti-epileptic drugs can be quantified. The anti-epileptic effect of compounds, which activate directly or indirectly the Kv7 channels can be modulated by the Kv7 channel blocker XE-991. The assay was performed as described previously (Pacico N, Mingorance-Le Meur A. New In Vitro Phenotypic Assay for Epilepsy: Fluorescent Measurement of Synchronized Neuronal Calcium Oscillations. PLoS ONE 9(1) 2014) with modifications described hereafter.
Animal care followed standard procedures in accordance with swiss institutional guidelines. Dissociated neuronal cultures were obtained from cerebral cortices of embryonic Wistar rats at embryonic stage E18 (Charles River). The uterine horns were removed by caesarian surgery from deeply anesthetized rats (Isofurane) and sacrificed by decapitation. The embryos were decapitated by closing forceps. The brains were isolated and dissected one by one in ice-cold PBS (Life Technologies) under optical control using a binocular. Meninges, olfactory bulbs, and basal ganglia were removed. Cortical hemispheres (still including the hippocampus) were cut in small pieces with tweezers and placed on ice in prechilled Hibernate-E medium (Life technology). The hemispheres were then incubated in 10 mL of Hibernate-E containing 15 U/mL papain (Worthington) for 25 min at 30° C. with gentle mixing every 10 min. Genomic DNA was then digested by prolonging the incubation during 10 min at 37° C. in presence of 4 U/mL rDNase I (Ambion). The obtained suspension was then centrifuged at 800 g for 5 min and the cell pellet was resuspended in 2 mL Hibernate-E and gently dissociated by pipetting up and down 10 times with a plastic Pasteur pipette resulting in a homogenous cell suspension. This suspension was immediately filtered through a 70 µm cell strainer (MACS® SmartStrainer, Miltenyi), collected in 10 mL Hibernate-E and centrifuged at 800 g for 5 min. The cell pellet was resuspended in Neurobasal medium, supplemented with 2% B-27, 0.5 mM Glutamax-I, 100 U/mL penicillin, 100 µg/mL streptomycin (Life Technologies) and diluted at the final concentration of 300′000 cells/mL. One day before plating the cells, 384-well plates were coated with 25 µL/well of 0.1 % poly-L-lysine solution (Sigma), incubated overnight at 37° C., washed two times with sterile distilled water and allowed to dry at room temperature for >2 h. The neurons were seeded at a density of 15′000 cells/well in 50 µL/well in a 384-well black, clear-bottomed plates (Corning) and subsequently maintained in an incubator at 37° C., 5% CO2 and 95% humidity for 8 to 10 days. After 3 and 7 days, 40% of media was renewed under sterile conditions.
Neurons seeded in the assay plates were washed with Hank’s balanced salt solution (HBSS) devoid of Ca^2+ and Mg^2+, supplemented with 20 mM HEPES (Life Technologies) and 2 mM CaCl2 (Sigma), pH 7.4 (hereafter called Assay buffer) using a Biotek EL406 plate washer. Neurons were loaded with 1 µM Fluo-8 AM in Assay buffer for 15 min at 37° C., 5% CO2. […]

The mark [1] stands for this setting: Rattus norvegicus, 20 min, 20 min after compound addition, AUC of fluorescence, read-out: FLIPR: IC50 [nM] 20 min.
Where [2] appears, read: Rattus norvegicus, Cortical neurone, acute phase, ratio of AUC fluorescence before and after compound addition, rat cortical neurons, Mg-free buffer, read-out: FLIPR: IC50 [nM] acute.
Where [3] appears, read: 20 min after compound addition, AUC of fluorescence, read-out: FLIPR: IC50 [nM] 20 min.
Setting [4] is: acute phase, ratio of AUC fluorescence before and after compound addition, rat cortical neurons, Mg-free buffer, read-out: FLIPR: IC50 [nM] acute.

For the compound `COCC(NC(=O)NC1CC(C(F)F)C1)c1ccnc(OCC(F)(F)F)c1` (racemic) [Example 31, (±)-1-(3-Difluoromethyl-Cyclobutyl)-3-{2-Methoxy-1-[2-(2,2,2-Trifluoro-Ethoxy)-Pyridin-4-yl]-Ethyl}-Urea], the IC50 was found to be 763 nM under setting [1] and 190 nM under setting [2].

As for `COCC(NC(=O)NC1CC(C(F)(F)F)C1)c1ccnc(OCC(F)(F)F)c1` (racemic) [Example 32, (±)-1-{2-Methoxy-1-[2-(2,2,2-Trifluoro-Ethoxy)-Pyridin-4-yl]-Ethyl}-3-(3-Trifluoromethyl-Cyclobutyl)-Urea], the IC50 was found to be 303 nM under setting [1] and 67 nM under setting [2].

Take `CC(NC(=O)NC1CC(C(F)F)C1)c1ccnc(OC(F)F)c1` (racemic) [Example 33, (±)-1-[1-(2-Difluoromethoxy-Pyridin-4-yl)-Ethyl]-3-(3-Difluoromethyl-Cyclobutyl)-Urea]: the half-maximal inhibitory concentration (IC50) runs as follows: under setting [1], 1510 nM; under setting [2], 946 nM.

In the case of `Cc1nc(OCC(F)(F)F)cc(C(C)NC(=O)NC23CC(C(F)(F)F)(C2)C3)n1` (racemic) [Example 34, (±)-1-{1-[2-Methyl-6-(2,2,2-Trifluoro-Ethoxy)-Pyrimidin-4-yl]-Ethyl}-3-(3-Trifluoromethyl-Bicyclo[1.1.1]Pent-1-yl)-Urea], the IC50 is, setting by setting: under setting [1], 291 nM; under setting [2], 247 nM.

`O=C(NCc1cccc(C(F)(F)F)c1)NC1CC(C(F)(F)F)C1` (single isomer, unassigned) [Example 50, 1-(3-(Trifluoromethyl)Benzyl)-3-(3-(Trifluoromethyl)Cyclobutyl)Urea]: the IC50 by setting is: under setting [3], 82 nM; under setting [4], 68 nM.

As to `O=C(NCc1cccc(C(F)(F)F)c1)NC1CC(C(F)(F)F)C1` (single isomer, unassigned) [Example 51, 1-(3-(Trifluoromethyl)Benzyl)-3-(3-(Trifluoromethyl)Cyclobutyl)Urea], the 50% inhibitory concentration (IC50) worked out at 515 nM under setting [3] and 363 nM under setting [4].

Turning to `O=C(NCc1cccc(C(F)(F)F)c1)NC1CC(C(F)F)C1` (single isomer, unassigned) [Example 52, 1-(3-(Difluoromethyl)Cyclobutyl)-3-(3-(Trifluoromethyl)Benzyl)Urea], the IC50 amounted to 738 nM under setting [3] and 660 nM under setting [4].

For `Cc1nc(OCC(F)(F)F)cc([C@H](C)NC(=O)NC23CC(C(F)(F)F)(C2)C3)n1` (single isomer, unassigned) [Example 54], the IC50 under setting [1] stood at 216 nM and the IC50 under setting [2] is 218 nM.

Regarding `O=C(NCc1ccnc(OCC(F)(F)F)c1)NC1CC(C(F)F)C1` (single isomer, unassigned) [Example 55, 1-(3-(Difluoromethyl)Cyclobutyl)-3-((2-(2,2,2-Trifluoroethoxy)Pyridin-4-yl)Methyl)Urea], the IC50 runs as follows: under setting [3], 1160 nM; under setting [4], 701 nM.

As for `O=C(NCc1ccnc(OCC(F)(F)F)c1)NC1CC(C(F)F)C1` (single isomer, unassigned) [Example 56, 1-(3-(Difluoromethyl)Cyclobutyl)-3-((2-(2,2,2-Trifluoroethoxy)Pyridin-4-yl)Methyl)Urea], the 50% inhibitory concentration (IC50) was found to be 547 nM under setting [3] and 123 nM under setting [4].

For the compound `C[C@H](NC(=O)NC1CC(C(F)F)C1)c1cccc(OC(F)(F)F)c1` (single isomer, unassigned) [Example 57], the IC50 under setting [3] was determined as 314 nM and the IC50 under setting [4] was 146 nM.

Regarding `C[C@H](NC(=O)NC1CC(C(F)F)C1)c1cccc(OC(F)(F)F)c1` (single isomer, unassigned) [Example 58], the half-maximal inhibitory concentration (IC50) under setting [3] was determined as 105 nM and the concentration for half-maximal inhibition (IC50) under setting [4] was found to be 51 nM.

Take `O=C(NCc1cccc(C(F)(F)F)c1)NC1CC(F)(F)C1` [Example 1, 1-(3,3-Difluoro-Cyclobutyl)-3-(3-Trifluoromethyl-Benzyl)-Urea]: the IC50 was determined as 855 nM under setting [1] and 486 nM under setting [2].

Regarding `CC(NC(=O)NC12CC(C1)C2)c1cccc(C(F)(F)F)c1` (centres unmarked) [Example 2, 1-Bicyclo[1.1.1]Pent-1-yl-3-[1-(3-Trifluoromethyl-Phenyl)-Ethyl]-Urea], the concentration for half-maximal inhibition (IC50) under setting [1] is 466 nM and the concentration for half-maximal inhibition (IC50) under setting [2] was 291 nM.

For `CC(NC(=O)NC1CC(C(F)F)C1)c1cccc(C(F)(F)F)c1` (centres unmarked) [Example 3, 1-(3-Difluoromethyl-cyclobutyl)-3-[1-(3-trifluoromethylphenyl)-ethyl]-urea], the IC50 under setting [1] is 334 nM and the IC50 under setting [2] stood at 188 nM.

`CC(NC(=O)NC12CC(F)(C1)C2)c1cccc(C(F)(F)F)c1` (centres unmarked) [Example 4, 1-(3-Fluoro-bicyclo[1.1.1]pent-1-yl)-3-[1-(3-trifluoromethylphenyl)-ethyl]-urea]: the 50% inhibitory concentration (IC50) runs as follows: under setting [1], 1060 nM; under setting [2], 138 nM.

Take `CC(NC(=O)NC12CC(C(F)F)(C1)C2)c1cccc(C(F)(F)F)c1` (centres unmarked) [Example 5, 1-(3-Difluoromethyl-bicyclo[1.1.1]pent-1-yl)-3-[1-(3-trifluoromethyl-phenyl)-ethyl]-urea]: the half-inhibitory concentration (IC50) by setting is: under setting [1], 216 nM; under setting [2], 296 nM.

For `CC(NC(=O)NC12CC(C1)C2)c1cccc(OC(F)(F)F)c1` (centres unmarked) [Example 6, 1-Bicyclo[1.1.1]Pent-1-yl-3-[1-(3-Trifluoromethoxy-Phenyl)-Ethyl]-Urea], the IC50 is 271 nM under setting [1] and 126 nM under setting [2].

Turning to `CC(NC(=O)NC1CC(C(F)F)C1)c1cccc(OC(F)(F)F)c1` (centres unmarked) [Example 7, 1-(3-Difluoromethyl-cyclobutyl)-3-[1-(3-trifluoromethoxyphenyl)-ethyl]-urea], the concentration for half-maximal inhibition (IC50) under setting [1] came to 100 nM and the 50% inhibitory concentration (IC50) under setting [2] worked out at 63 nM.

`CC(NC(=O)NC12CC(F)(C1)C2)c1cccc(OC(F)(F)F)c1` (centres unmarked) [Example 8, 1-(3-Fluoro-bicyclo[1.1.1]pent-1-yl)-3-[1-(3-trifluoromethoxyphenyl)-ethyl]-urea]: the 50% inhibitory concentration (IC50) is, setting by setting: under setting [1], 331 nM; under setting [2], 168 nM.

Consider `O=C(NC1CC(O)(C(F)(F)F)C1)NC(c1cccc(C(F)(F)F)c1)C(F)F` (centres unmarked) [Example 9, 1-[2,2-Difluoro-1-(3-Trifluoromethyl-Phenyl)-Ethyl]-3-(3-Hydroxy-3-Trifluoromethyl-Cyclobutyl)-Urea], for which the IC50 stood at 1420 nM under setting [1] and 766 nM under setting [2].

In the case of `CC1(NC(=O)NC(c2cccc(C(F)(F)F)c2)C(F)F)CC(F)(F)C1` (centres unmarked) [Example 10, 1-(3,3-Difluoro-1-Methyl-Cyclobutyl)-3-[2,2-Difluoro-1-(3-TrifluoromethylPhenyl)-Ethyl]-Urea], the IC50 under setting [1] was determined as 51 nM and the IC50 under setting [2] was 57 nM.

In the case of `CC(NC(=O)NC12CC(C1)C2)c1cccc(OC(F)F)c1` (centres unmarked) [Example 11, 1-Bicyclo[1.1.1]Pent-1-yl-3-[1-(3-Difluoromethoxy-Phenyl)-Ethyl]-Urea], the half-maximal inhibitory concentration (IC50) runs as follows: under setting [1], 1360 nM; under setting [2], 741 nM.

Turning to `O=C(NC(CO)c1cccc(C(F)(F)F)c1)NC12CC(C(F)F)(C1)C2` (centres unmarked) [Example 12, 1-(3-Difluoromethyl-Bicyclo[1.1.1]Pent-1-yl)-3-[2-Hydroxy-1-(3-Trifluoromethyl-Phenyl)-Ethyl]-Urea], the concentration for half-maximal inhibition (IC50) amounted to 164 nM under setting [1] and 154 nM under setting [2].

`O=C(NC(c1cccc(C(F)(F)F)c1)C(F)F)NC12CC(C(F)F)(C1)C2` (centres unmarked) [Example 13, 1-(3-Difluoromethyl-bicyclo[1.1.1]pent-1-yl)-3-[2,2-difluoro-1-(3-trifluoromethyl-phenyl)-ethyl]-urea]: the concentration for half-maximal inhibition (IC50) under setting [1] was 41 nM and the IC50 under setting [2] is 14 nM.
